In publication PMC8955377, “Greener Synthesis of Antiproliferative Furoxans via Multicomponent Reactions” (Molecules, 2022):
Like-named read-outs stand apart in the source and are kept apart here.

Legend:
T24 cells [1] = experiment: Antiproliferative activity, sulforhodamine B assay, T24 bladder cancer cells; format: cell-based, human; conditions: SRB, mean (±SEM)
Protocol: (§1) In vitro antiproliferative activity of the compounds was determined in cells derived from bladder cancer (T24) and prostate cancer (LNCaP). The cells were incubated in the presence of the compounds for 48 h. The antiproliferative activity was determined using the sulforhodamine B assay. The results were expressed as GI50, which is the drug concentration resulting in a 50% reduction of cellular net growth when compared with the values of untreated control cells. The standard anticancer drug cisplatin was used as a positive control, and furoxan 3 and 11a were also included as ⋅NO donor reference compounds. The results are summarized in Table 2 for the Ugi product 7a, Ugi-Fx (8a) and 8b–g Ugi-furoxan derivatives, and GBB product 10 and 12a–e GBB-furoxan derivatives.
(§2) The T24 cells were grown in McCoy’s 5A (Biological Industries) supplemented with 10% FBS (Capricorn Scientific). The cells were passaged twice per week, and the culture medium was changed with the same frequency. The LNCaP cells were maintained in RPMI media (Biological Industries) supplemented with 10% FBS (Capricorn Scientific) and 10% of its own conditioned medium (complete media). The cells were passaged once per week, and the medium was changed with the same frequency. The HaCaT cells (immortalized human keratinocytes) were cultured in Dulbecco’s modified Eagle medium (Biological Industries) supplemented with 10% FBS (Capricorn Scientific). The cells were passaged twice per week, and the medium was changed with the same frequency. The cell cultures were maintained under a humidified 5% CO2 atmosphere at 37 °C.
(§3) For viability assays, cells were treated with a 0.25% Trypsin–0.05% EDTA solution and plated in 96-well plates in complete medium the day before the experiment. The cells were seeded in a 96-well plate at densities of 8 × 10^3 cells per well for T24 cells, 12.5 × 10^3 cells per well for LNCaP cells, and 10 × 10^3 cells per well for HaCaT cells. The cultures were allowed to attach for 24 h in a humidified 5% CO2 atmosphere at 37 °C. Then, the cells were treated with increasing concentrations of the compounds (0.4–100.0 µM) prepared in complete medium using stock solutions in DMSO and were kept for 48 h in a CO2 incubator. Wells with only media or 0.5% DMSO were added as controls. The antiproliferative activity of the compounds was assayed using the SRB method in at least three independent experiments.

LNCaP cells = experiment: Antiproliferative activity, sulforhodamine B assay, LNCaP prostate cancer cells; format: cell-based, human; conditions: 48 h, SRB, mean (±SEM)
Protocol: as §1, §2, §3

HaCaT cells [2] = experiment: Cytotoxicity in non-cancer keratinocytes, sulforhodamine B assay; format: cell-based; conditions: HaCaT human keratinocytes, 0.4–100 µM, SRB; mean (±SEM)
Protocol: As a first approximation of the safety profile of the synthesized compounds and to determine the cytotoxic selectivity against cancer cells, the antiproliferative activity in non-cancer cells was studied. This evaluation was carried out in human keratinocyte HaCaT cells with 0.4–100 µM of the test compounds using the sulforhodamine B assay. The selectivity index (SI) was calculated for these compounds by dividing the GI50 for HaCaT by the GI50 for each cancer cell line. […] The derivatives Ugi-Fx (8a) and 12e stand out, with selectivity indices of 14.5 and 10.8, respectively. […] Concerning the LNCaP prostate cancer cell line, as for the reference drug, no selectivity was observed. […] Therefore, this new GBB-furoxan derivative can be a starting point in the design of new structures with improved selectivity.
as §2, §3

T24 cells [3] = experiment: Antiproliferative activity with hemoglobin (NO scavenger), SRB assay; format: cell-based, human; conditions: Hb 0 or 50 µM 1 h pretreatment, compounds 10 µM, 48 h, Figure 4
Protocol: In this context, we next decided to study the effect of ·NO on their antiproliferative activity against T24 cells after incubation with an ·NO scavenger (Hb, hemoglobin). For this purpose, T24 cells were pretreated for 1 h with 0 or 50 µM of Hb and then the ·NO-donor compounds were added at 10 µM for 48 h. […] However, while for some compounds, such as 8d, ·NO release seems to be crucial for the antiproliferative activity, for others, such as Ugi-Fx (8a), other mechanisms would account for its anticancer effect. It is well-known that the action of 3-phenylsulfonylfuroxan derivatives is connected to ⋅NO release due to their interaction with free intracellular thiols or thiol groups of proteins. However, this action may also involve a covalent bond to thiol biomolecules with the concomitant displacement of the phenylsulfonyl group, leading to a cytotoxic adduct accumulation in the cell milieu. […] Further studies to elucidate the possible mechanisms of action involved will be performed.
To investigate the contribution of ⋅NO to the antiproliferative activity of the studied compounds, we tested their effect on T24 bladder cancer cell growth in the absence and presence of Hb. Cells were seeded into a 96-well plate at 8 × 10^3 cells per well and were allowed to attach for 24 h. […] Then, the antiproliferative activity was assessed by the SRB assay in at least three independent experiments. […]

T-47D (Breast) = system: T-47D (Breast); design: method as in PMID 31356736; conditions: cited from earlier work
WiDr (Colon) = system: WiDr (Colon); design: method as in PMID 31356736; conditions: cited from earlier work
HeLa (Cervix) = system: HeLa (Cervix); design: method as in PMID 31356736; conditions: cited from earlier work
SW1573 (Lung) = system: SW1573 (Lung); design: method as in PMID 31356736; conditions: cited from earlier work
A549 (Lung) = system: A549 (Lung); design: method as in PMID 31356736; conditions: cited from earlier work
HBL-100 (Breast) = system: HBL-100 (Breast); design: method as in PMID 31356736; conditions: cited from earlier work
HaCaT cells [4] = system: HaCaT cells; design: method as in PMID 30489292; conditions: HaCaT human keratinocytes; cited from earlier work

## Cc1ccc(N(C(=O)c2cccc(O)c2)C(C(=O)NC(C)(C)C)c2ccccc2)cc1 (stereo not drawn) [7a, N-(1-(tert-butylaminocarbonyl)-1-phenylmethyl)-N-(4-methylphenyl)-3-hydroxyphenyl carboxamide]
T24 cells [1]; Homo sapiens, T-24, 48 h
  GI50: > 100 µM
LNCaP cells; Homo sapiens
  GI50: > 100 µM

## Cc1ccc(N(C(=O)c2ccccc2Oc2no[n+]([O-])c2S(=O)(=O)c2ccccc2)C(C(=O)NC(C)(C)C)c2ccccc2)cc1 (stereo not drawn) [8b, N-[1-(tert-butylaminocarbonyl)-1-phenylmethyl]-N-(4-methylphenyl)-2-[3-(phenylsulfonyl)-[1,2,5]oxadiazol-4-yl N2-oxide]oxyphenylcarboxamide]
HaCaT cells [2]
  GI50: 3.78 µM
T24 cells [1]; Homo sapiens, T-24, 48 h
  GI50: 1.83 µM
LNCaP cells; Homo sapiens
  GI50: 13.3 µM

## Cc1ccc(N(C(=O)c2ccc(Oc3no[n+]([O-])c3S(=O)(=O)c3ccccc3)cc2)C(C(=O)NC(C)(C)C)c2ccccc2)cc1 (stereo not drawn) [8c, N-[1-(tert-butylaminocarbonyl)-1-phenylmethyl]-N-(4-methylphenyl)-4-[3-(phenylsulfonyl)-[1,2,5]oxadiazol-4-yl N2-oxide]oxyphenylcarboxamide]
HaCaT cells [2]
  GI50: 4.62 µM
T24 cells [1]; Homo sapiens, T-24, 48 h
  GI50: 2.18 µM
LNCaP cells; Homo sapiens
  GI50: 18.8 µM

## Cc1ccc(N(CC(=O)NC(C)(C)C)C(=O)c2cccc(Oc3no[n+]([O-])c3S(=O)(=O)c3ccccc3)c2)cc1 [8d, N-(1-(tert-butylaminocarbonyl)methyl)-N-(4-methylphenyl)-3-[3-(phenylsulfonyl)-[1,2,5]oxadiazol-4-yl N2-oxide]oxy phenylcarboxamide]
HaCaT cells [2]
  GI50: 9.99 µM
T24 cells [1]; Homo sapiens, T-24, 48 h
  GI50: 2.1 µM
LNCaP cells; Homo sapiens
  GI50: 21.8 µM

## CCCCN(C(=O)c1cccc(Oc2no[n+]([O-])c2S(=O)(=O)c2ccccc2)c1)C(C(=O)NC(C)(C)C)c1ccccc1 (stereo not drawn) [8e, N-(1-(tert-butylaminocarbonyl)-1-phenylmethyl)-N-(butyl)-3-[3-(phenylsulfonyl)-[1,2,5]oxadiazol-4-yl N2-oxide]oxyphenylcarboxamide]
HaCaT cells [2]
  GI50: 11.8 µM
T24 cells [1]; Homo sapiens, T-24, 48 h
  GI50: 1.53 µM
LNCaP cells; Homo sapiens
  GI50: 21.8 µM

## CCCCN(CC(=O)NC(C)(C)C)C(=O)c1cccc(Oc2no[n+]([O-])c2S(=O)(=O)c2ccccc2)c1 [8f, N-(1-(tert-butylaminocarbonyl)methyl)-N-(butyl)-3-[3-(phenylsulfonyl)-[1,2,5]oxadiazol-4-yl N2-oxide]oxyphenylcarboxamide]
HaCaT cells [2]
  GI50: 11.8 µM
T24 cells [1]; Homo sapiens, T-24, 48 h
  GI50: 2.86 µM
LNCaP cells; Homo sapiens
  GI50: 29.9 µM

## Cc1ccc(N(C(=O)c2ccccc2)C(C(=O)NC(C)(C)C)c2cccc(Oc3no[n+]([O-])c3S(=O)(=O)c3ccccc3)c2)cc1 (stereo not drawn) [8g, N-(1-(tert-butylaminocarbonyl)-1-3-[3-(phenylsulfonyl)-[1,2,5]oxadiazol-4-yl N2-oxide]oxyphenylmethyl)-N-(4-methylphenyl)-phenylcarboxamide]
HaCaT cells [2]
  GI50: 4.99 µM
T24 cells [1]; Homo sapiens, T-24, 48 h
  GI50: 1.7 µM
LNCaP cells; Homo sapiens
  GI50: 36.7 µM

## O=Cc1cccc(Oc2no[n+]([O-])c2S(=O)(=O)c2ccccc2)c1 [11a, reference compound]
HaCaT cells [2]
  GI50: 7.83 µM
T24 cells [1]; Homo sapiens, T-24, 48 h
  GI50: 7.08 µM
LNCaP cells; Homo sapiens
  GI50: 24.5 µM

## CC(C)(C)Nc1c(-c2cccc(Oc3no[n+]([O-])c3S(=O)(=O)c3ccccc3)c2)nc2ccccn12 [12a, 4-(3-(3-(tert-butylamino)imidazo[1,2-a]pyridin-2-yl)phenoxy)-3-(phenylsulfonyl)-1,2,5-oxadiazole 2-oxide]
HaCaT cells [2]
  GI50: 7.44 µM
T24 cells [1]; Homo sapiens, T-24, 48 h
  GI50: 1.76 µM
LNCaP cells; Homo sapiens
  GI50: 24.7 µM

## CC(C)(C)Nc1c(-c2ccccc2Oc2no[n+]([O-])c2S(=O)(=O)c2ccccc2)nc2ccccn12 [12b, 4-(2-(3-(tert-butylamino)imidazo[1,2-a]pyridin-2-yl)phenoxy)-3-(phenylsulfonyl)-1,2,5-oxadiazole 2-oxide]
HaCaT cells [2]
  GI50: 3.11 µM
T24 cells [1]; 48 h
  GI50 T24: sub-micromolar range
T24 cells [1]; Homo sapiens, T-24, 48 h
  GI50: 0.85 µM
LNCaP cells; Homo sapiens
  GI50: 7.7 µM

## CC(C)(C)Nc1c(-c2ccc(Oc3no[n+]([O-])c3S(=O)(=O)c3ccccc3)cc2)nc2ccccn12 [12c, 4-(4-(3-(tert-butylamino)imidazo[1,2-a]pyridin-2-yl)phenoxy)-3-(phenylsulfonyl)-1,2,5-oxadiazole 2-oxide]
HaCaT cells [2]
  GI50: 5.22 µM
T24 cells [1]; Homo sapiens, T-24, 48 h
  GI50: 2.99 µM
LNCaP cells; Homo sapiens
  GI50: 24.2 µM

## CC(C)(C)Nc1c(-c2cccc(Oc3no[n+]([O-])c3S(=O)(=O)c3ccccc3)c2)nc2cnccn12 [12d, 4-(3-(3-(tert-butylamino)imidazo[1,2-a]pyrazin-2-yl)phenoxy)-3-(phenylsulfonyl)-1,2,5-oxadiazole 2-oxide]
HaCaT cells [2]
  GI50: 9.84 µM
T24 cells [1]; Homo sapiens, T-24, 48 h
  GI50: 2.72 µM
LNCaP cells; Homo sapiens
  GI50: 8.13 µM

## CC(C)(C)Nc1c(-c2cccc(Oc3no[n+]([O-])c3S(=O)(=O)c3ccccc3)c2)nc2sccn12 [12e, 4-(3-(5-(tert-butylamino)imidazo[2,1-b]thiazol-6-yl)phenoxy)-3-(phenylsulfonyl)-1,2,5-oxadiazole 2-oxide]
HaCaT cells [2]
  GI50: 9.01 µM
T24 cells [1]; 48 h
  GI50 T24: sub-micromolar range
T24 cells [1]; Homo sapiens, T-24, 48 h
  GI50: 0.83 µM
LNCaP cells; Homo sapiens
  GI50: 16.5 µM

## N.N.[Cl][Pt][Cl] [Cisplatin, cisplatin, reference compound]
HaCaT cells [2]
  GI50: 2.51 µM
T24 cells [1]; 48 h
  GI50: 3.28 µM
LNCaP cells
  GI50: 20.3 µM

## Cc1ccc(N(C(=O)c2cccc(Oc3no[n+]([O-])c3S(=O)(=O)c3ccccc3)c2)C(C(=O)NC(C)(C)C)c2ccccc2)cc1 (stereo not drawn) [Ugi-Fx (8a), N-[1-(tert-butylaminocarbonyl)-1-phenylmethyl]-N-(4-methylphenyl)-3-[3-(phenylsulfonyl)-[1,2,5]oxadiazol-4-yl N2-oxide]oxyphenylcarboxamide]
T24 cells [3]
  Effect of hemoglobin on antiproliferative effect (cell growth inhibition): high antiproliferative activity even in the presence of a ⋅NO scavenger
T-47D (Breast)
  GI50: 1.9 µM
HaCaT cells [2]
  GI50: 10.6 µM
WiDr (Colon)
  GI50: 3 µM
T24 cells [1]; 48 h
  GI50 T24: sub-micromolar range
T24 cells [1]; Homo sapiens, T-24, 48 h
  GI50: 0.73 µM
HeLa (Cervix)
  GI50: 1.8 µM
LNCaP cells; Homo sapiens
  GI50: 20.2 µM
SW1573 (Lung)
  GI50: 0.021 µM
A549 (Lung)
  GI50: 2.3 µM
HBL-100 (Breast)
  GI50: 0.23 µM

## O=S(=O)(c1ccccc1)c1no[n+]([O-])c1S(=O)(=O)c1ccccc1 [compound 2, 3,4-bis(phenylsulfonyl)furoxan]
HaCaT cells [4]
  GI50: 1.47 µM

## O=C(O)c1cccc(Oc2no[n+]([O-])c2S(=O)(=O)c2ccccc2)c1 [compound 3, reference compound]
HaCaT cells [2]
  GI50: 14.4 µM
T24 cells [1]; Homo sapiens, T-24, 48 h
  GI50: 8.6 µM
LNCaP cells; Homo sapiens
  GI50: 32.5 µM

## CC(C)(C)Nc1c(-c2cccc(O)c2)nc2ccccn12 [compound 10, N-tert-Butyl-2-(3-hydroxyphenyl)imidazo[1,2-a]pyridin-3-amine]
T24 cells [1]; Homo sapiens, T-24, 48 h
  GI50: > 100 µM
LNCaP cells; Homo sapiens
  GI50: > 100 µM
